From US5958966A, “Treatment of aberrant cellular states with biomodulators” (University of New Mexico, priority 1995, dated 1999)
“Also recorded” adds a separate entry of the source. Where two headings read alike, the source gives them in different places.

Assays:
P-815 mastocytoma cells = assay: P-815 cytotoxic T lympholysis / cell mediated lympholysis; type: cell-based, mouse; details: hydrocortisone 2 mg day -2; hydroxyurea 10^-5 M
Protocol: In this case the P-815 is injected into the H-2 incompatible host and in the Brunner and Cerotini model an antigen specific lympholysis event occurs with an optimum on day 11 at an effector/target ratio of 100:1 with 30% lysis. If the spleens of the injected animals are removed on day three there is no observable cytotoxicity; however, if the spleen cells are treated with biomodulator (in this case PWM at 100 ng) there is an enormous increase in the cytotoxicity event. […] Our model involves at least seven point cytotoxicity curves and for comparison purposes we calculate the slope, intercept and correlation coefficients, and then use that data for further analyses. The slope represents a measure of the efficiency of kill and in the biomodulator treated cells is approximately […] versus 0.24 for the control antigen driven response on day 11. This represents a seven fold increase in simple cytotoxicity efficiency. […]
P 815 mastocytoma cells are grown in culture or as an ascites (DBA H-2/d) and injected into C57BL/6J mice (H-2/b). […] The specificity of the response is assessed by testing the cytotoxicity against EL-4 cells ([…]) which are NK insensitive and histoincompatible with the original target. […]
Seven effector/target ratios are tested and the percent lysis calculated. […]

[1] = system: human peripheral blood leukocytes (HPBL); assay: stimulation / inhibition of IgG production in HPBL; type: cell-based; details: for activation at 0.1 µM: Homo sapiens, Leukocyte, 90 h
Protocol: Human peripheral blood leukocytes were cultured in a standard tissue culture medium. Aliquots of these cultured cells (1,000,000 cells/ml medium) were cultured for 6 hours, and the specified amount of Formula II compound was added; the cells were then cultured for an additional 90 hours. Sheep red blood cells (SRBC) conditioned with class-specific (IpG) goat anti-human antiserum (1:400) for 2 hours; then guinea pig complement (2%) for 2 hours were conjugated to Protein A as described in detail in Radioimmunoimaging and Radioimmunotherapy, Eds. S. W. Burchiel and B. A. Rhodes, Elsevier Science Publishing; New York, 1983, pp. 125-127, incorporated herein by reference.

[2] = system: human colon carcinoma cell line (LS-174); assay: generation time of LS-174 human colon carcinoma cells; type: cell-based; details: for Tg: control 26.5
Protocol: The procedure of Example VA, above, was repeated except a human colon carcinoma cell line (LS-174) was used instead of the canine glioma cell line.
(§1) Mean of triplicate determinations. LS-174 cells (human colon carcinoma) were grown under conditions to promote exponential growth characteristics; 2×10^5 cells in a T-25 flask. The cells were harvested every 72 hours after the controls had reached approximately 85% confluency. The drug was added at the initiation of culture in DMSO, the control cultures had just DMS0. The drug concentration was adjusted with DMSO so that the final concentration of DMS0 was always 0.5%.

Canine glioma cells = assay: generation time of canine glioma cells (Formula II compound); type: cell-based; details: for Tg: control 18.6
Protocol: The cells were harvested every 72 hours after the controls had reached 85% confluency. Generation time (Tg) was determined as the number of hours required for the cell population to double.
as §1, with “determinations. Canine glioma” for “determinations. LS-174”, “cells” for “cells (human colon carcinoma)”, “characteristics; 2×10^5cells” for “characteristics; 2×10^5 cells”, “just DMSO.” for “just DMS0.”, “with DMS0” for “with DMSO”

canine glioma tumors = canine glioma tumors in nude rats; type: in vivo, nude rat
Protocol: C57 BL/6 mice were injected I.M. with B-16 melanoma cells, maintained in culture in the right flank or shoulder. Tumor growth was monitored on a daily basis by physical measurement and by MRI/MRS on a weekly basis. Treatment routes were via intraperitoneal injection using various CAD between 1 μg and 0.001 μg per animal on a M, W, F injection schedule. The animals were terminated by CO2 when the tumors had become 1.0 cm in diameter. Lung metastases were counted.
Various biomodulators were tested in vivo for their effects on canine glioma tumors established and monitored as above for mice, but in nude rats.
The histology stain toluidine blue is in the lower right hand position for orientation.

HPBL / IMR-90 cells = assay: biomodulator assay; type: cell-based, human
Source text: a. Biomodulators cause, at a concentration in the general range of 100 pM-1 μm, the differentiation of lymphocytes. This differentiation can be detected by, for example, the increased production of specific and non-specific antibodies in response to the presence of biomodulator in the culture medium, e.g., according to the HPBL method discussed above in C, or the alteration in the class of antibodies being produced by a cell line, e.g., from IgM to IgG, e.g., according to the method disclosed in the same reference.
b. Biomodulators cause, at a concentration in the general range of 100 pM-1 μm, the alteration of the cell surface oligosaccharide display of IMR-90 cells in culture as discussed in A. above.
Activity in both of these assays is a necessary and sufficient measure of whether or not a given substance is a biomodulator, as defined herein.

canine glioma = canine glioma implanted in dog brain (Formula II / TF compounds); type: in vivo
Protocol: Canine glioma was implanted surgically into the brains of four outbred dogs (2×10^6 cells). This procedure normally causes death by tumor growth in 14-28 days. […]
Tumor progress was assessed at weekly intervals by NMR, employing GdDTPA as imaging agent. This method illuminates vascularization at the surface of the tumor, and provides images which correlate well with neuropathological observations.

[3] = system: T-independent antigen (TNP-Ficoll) response; assay: in vivo humoral response to TNP-Ficoll (plaque assay); parameters: species or system mouse; details: mice
Protocol: In this case both IgM and IgG hapten specific responses were recorded as well as non-antigen specific plaque responses (Ig-PFC) using a Protein A coated red blood cell target.
The TNP-Ficoll antigen is administered as the SRBC antigen was above, by i.p. injection and the response assessed by conjugating the TNP hapten directly to the SRBC target, thus obviating any potential "carrier" effect. […] In this case, a third experimental parameter has been added to the study, the production of non-specific immunoobulin (Ig-PFC). This parameter provides information on the general status of the humoral response regardless of antigen specificity. The TNP-Ficoll antigen does elicit a modest Ig-PFC response but little if any IgG specific response. […] In this case there is a very large specific and non-specific augmentation.

canine glioma (CG) cells = assay: cell surface oligosaccharide display of canine glioma cells (lectin binding, Scatchard, Gibb's Free Energy); type: cell-based
Source text: Taken together these affinity differences account for almost 10 kcal of additional binding energy retrievable from interactions in the case of the IMR-90s which is unavailable to the CGs. […] This treatment regimen results in an increase in the Tg of the cells as well as changes in the proton linewidth of unfrozen water (shown below). […] This display more closely resembles that of the growth regulated IMR-90s. It should be noted that the actual lines on these figures are visual estimates however, the data in the boxes are calculated values. It is these values that are used to estimate the GFE for comparison purposes.
The cell surface oligosaccharide display was assessed by methods developed previously. In brief, cells from a sub-culturing were aliquotted into 96 well trays at 5×10^5 cells per ml, 100 μL aliquots. After 16 hours of culture the cells were washed, fixed, and blocked with 0.1% BSA/PBS. Optimal lectin concentrations (5 μg/ml)were used to give 80 to 90% saturation of the available sites. Three carbohydrate ligands at 10 μg concentrations in triplicate or quadruplicate were then used to prepare competition curves for the lectin binding. The Bound over Free (B/F) ratio was calculated and the Ligand microprocessor program was used to determine the optimal fit of the data to a polynomial generated model. The Gibb's Free Energy (GFE) was calculated from the Scatchard data on the competition assay by the following equation: GFE=-RT 1n Kequit. The proton NMR linewidth measurements were conducted as described previously.

[4] = 10 nM, 12 × 4 h (so in the source)
[5] = 1 ng/kg I.P. begun same day as implantation
[6] = pre-treated, 10 ng/kg I.P. M, W, F

NC(=O)NO [Hydroxyurea]
influence on the biomodulator effect on CML (P-815 mastocytoma cells): does not inhibit the biomodulator effect on CML

CC(C)OC(=O)C[C@H](O)C[C@@H](O)/C=C/c1c(C(C)C)nc(-c2ccccc2)n1-c1ccc(F)cc1 (relative stereo) [Compound IIe']
Stimulation of IgG Production ([1]; 1&100 nM): 1990%
IgG production in words ([1]; HPBL): stimulated IgG production
activation at 0.1 µM ([1]; lower concentrations (100 nM), read-out: enhancement of IgG production): < 350%
% Change (Tg) [2, 4]: 414%
Tg [2, 4]: 109.6 h
% Change (Tg) ([2]; 10 nM, 72 × 2 h): 400%
Tg ([2]; 10 nM, 72 × 2 h): 106.2 h
% Change (Tg) ([2]; 10 nM, 72 × 3 h): 416%
Tg ([2]; 10 nM, 72 × 3 h): 110.3 h
% Change (Tg) ([2]; 10 nM, 72 h): 320%
prolongation of generation time ([2]; three passages, 10 nM): 4.16 fold
generation time after drug withdrawal ([2]; two passages, data not shown): returned to control levels
% Change (Tg) (Canine glioma cells; 10 nM, 72x2 h): 129%
Tg (Canine glioma cells; 10 nM, 72x2 h): 24.0 h
% Change (Tg) (Canine glioma cells; 10 nM, 72x3 h): 180%
Tg (Canine glioma cells; 10 nM, 72x3 h): 33.4 h
% Change (Tg) (Canine glioma cells; 10 nM, 72x4 h): 155%
Tg (Canine glioma cells; 10 nM, 72x4 h): 28.9 h
% Change (Tg) (Canine glioma cells; 10 nM, 72 h): 136%
contact inhibition (Canine glioma cells; cells approaching confluency): showed evidence of contact inhibition as the cells approached confluency
slowing of the growth rate (Canine glioma cells; three passages, 10 nM): 1.8 fold

CC(C)OC(=O)C[C@H](O)C[C@@H](O)/C=C/c1c(C(C)C)nc(-c2ccccc2)n1-c1ccc(F)cc1 [HHD-7]
effect on tumor growth (canine glioma tumors): showed the best regression

CC(C)OC(=O)C[C@H](O)C[C@H](O)/C=C/c1c(C(C)C)nc(-c2ccccc2)n1-c1ccc(F)cc1 [IId]
activation at 0.1 µM ([1]; 100 nM, read-out: Stimulation of IgG Production): 320%

Cc1c(/C=C/C(O)CC(O)CC(=O)O)ccc2c1C(O)CC(C)C2 (stereo not drawn) [colletruncoic acid]
biomodulator activity (HPBL / IMR-90 cells): has been shown to have biomodulator activity

CC(C)c1c(/C=C/C(O)CC(O)CC(=O)O)n(-c2ccc(F)cc2)c2ccccc12 (stereo not drawn) [TF-004]
complete regression by day (canine glioma; [5]): ≤ 21 days
substantial regression by day (canine glioma; [5]): ≤ 15 days
complete regression by day (canine glioma; treatment begun on Day 11): ≤ 30 days
substantial regression by day (canine glioma; treatment begun on Day 11): ≤ 21 days

Dextran
PFC response to TNP-Ficoll [3]: some stimulatory effect; also recorded: marked cellular proliferation but little differentiative response

O[C@H]1[C@H]2[C@H](O)CCCN2C[C@H]1O [Swainsonine (Sw)]
exposure time for increase in GFE (canine glioma (CG) cells): approximately 300 hours

CC(C)OC(=O)C[C@H](O)C[C@H](O)/C=C/c1c(C(C)C)nc(-c2ccccc2)n1-c1ccc(F)cc1 [HHD-3]
effect on tumor growth (canine glioma tumors): showed no regression effect, just delay of the control growth pattern

C[C@]12CCC(=O)C=C1CC[C@@H]1[C@@H]2[C@@H](O)C[C@@]2(C)[C@H]1CC[C@]2(O)C(=O)CO [Hydrocortisone]
influence on the biomodulator effect on CML (P-815 mastocytoma cells): reduced the biomodulator effect

CC(C)c1nc(-c2ccccc2)n(-c2ccc(F)cc2)c1/C=C/[C@H](O)C[C@H](O)CC(=O)O [TF-002]
later tumor status (canine glioma; later studies, data not shown): free of tumor
day of appearance of small tumor (canine glioma; [6]): 12 days
tumor regressed by day (canine glioma; [6]): ≤ 19 days
